Key:
[1] = target: human S1P3 receptor (Homo sapiens (Human), UniProt Q99500); test: GTPγS assay to determine EC50 values, S1P3; assay type: biochemical; conditions: comparison in words
[2] = system: circulating lymphocytes; test: Assessment of in vivo efficacy: circulating lymphocytes after oral administration; parameters: species or system rat; conditions: 6 h after oral administration of 10 mg/kg, normotensive male Wistar rats, compared to vehicle group
Method: The efficacy of the compounds of Formula (I) is assessed by measuring the circulating lymphocytes after oral administration of 3 to 30 mg/kg of a compound of Formula (I) to normotensive male Wistar rats. The animals are housed in climate-controlled conditions with a 12 h-light/dark cycle, and have free access to normal rat chow and drinking water. Blood is collected before and 3, 6 and 24 h after drug administration. Full blood is subjected to hematology using Advia Hematology system (Bayer Diagnostics, Zürich, Switzerland).
All data are presented as mean±SEM. Statistical analyses are performed by analysis of variance (ANOVA) using Statistica (StatSoft) and the Student-Newman-Keuls procedure for multiple comparisons. The null hypothesis is rejected when p<0.05.
Lymphocyte counts 6 h after oral administration have been measured for 2 out of 8 exemplified compounds and are in the range of −71% to −73% with an average of −72%.

Sequence of human S1P3 receptor (Q99500 whole entry): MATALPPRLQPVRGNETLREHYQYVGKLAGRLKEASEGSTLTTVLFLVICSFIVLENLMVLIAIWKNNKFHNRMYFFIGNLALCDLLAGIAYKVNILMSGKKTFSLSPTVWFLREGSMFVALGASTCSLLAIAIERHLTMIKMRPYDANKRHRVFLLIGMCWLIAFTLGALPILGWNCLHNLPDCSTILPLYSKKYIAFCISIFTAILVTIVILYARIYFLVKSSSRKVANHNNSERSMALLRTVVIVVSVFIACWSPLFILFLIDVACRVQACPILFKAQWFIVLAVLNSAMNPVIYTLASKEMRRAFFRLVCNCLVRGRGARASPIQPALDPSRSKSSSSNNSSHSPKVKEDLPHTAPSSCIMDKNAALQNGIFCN

CCCc1cc(-c2nc(-c3cc(C)c(OC[C@@H](O)CNC(=O)CO)c(CC)c3)no2)ccn1 [Example 2, (S)—N-(3-(2-ethyl-4-(5-(2-propylpyridin-4-yl)-1,2,4-oxadiazol-3-yl)-6-methyl-phenoxy)-2-hydroxypropyl)-2-hydroxyacetamide]
potency on S1P3 receptor compared to closest analog in D1 [1]: clearly less potent

CCc1cc(-c2noc(-c3ccnc(CC(C)C)c3)n2)cc(C)c1OC[C@@H](O)CNC(=O)CO [Example 5, (S)—N-(3-(2-Ethyl-4-(5-(2-isobutylpyridin-4-yl)-1,2,4-oxadiazol-3-yl)-6-methylphenoxy)-2-hydroxypropyl)-2-hydroxyacetamide]
potency on S1P3 receptor compared to closest analog in D1 [1]: significantly less potent

CCc1cc(-c2noc(-c3ccnc(C(CC)CC)c3)n2)cc(C)c1OC[C@@H](O)CNC(=O)CO [Example 7, (S)—N-(3-(2-ethyl-4-(5-(2-(pentan-3-yl)-pyridin-4-yl)-1,2,4-oxadiazol-3-yl)-6-methylphenoxy)-2-hydroxypropyl)-2-hydroxyacetamide]
potency on S1P3 receptor compared to closest analog in D1 [1]: significantly less potent | Lymphocyte counts [2]: −71%

CCc1cc(-c2noc(-c3ccnc(C4CCCC4)c3)n2)cc(C)c1OC[C@@H](O)CNC(=O)CO [Example 8, (S)—N-(3-(2-ethyl-4-(5-(2-cyclopentylpyridin-4-yl)-1,2,4-oxadiazol-3-yl)-6-methylphenoxy)-2-hydroxypropyl)-2-hydroxyacetamide]
potency on S1P3 receptor compared to closest analog in D1 [1]: significantly less potent | Lymphocyte counts [2]: −73%

From patent US9617250B2, “Pyridin-4-yl derivatives” (ACTELION PHARMACEUTICALS LTD., priority 2013, dated 2017)
